Test results as given in patent US10221171B2, “Oxathiazole thiazolium Hsp 70 inhibitors” (THE REGENTS OF THE UNIVERSITY OF CALIFORNIA, priority 2015, dated 2019).
Like-named read-outs stand apart in the source and are kept apart here.

Key:
Format in all cases: cell-based
MEF (C57BL/6) = assay: MTT cell viability assay, MEF (C57BL/6); conditions: Mus musculus
Description: (§1) Cells were then treated with compound at various concentrations in 0.2 mL media. After the 72-hour incubation period, cells were washed in PBS (3×100 μL), and 10 μL MTT reagent was added with 100 μL fresh media. Cells were then incubated for 4 hr in a humidified chamber at 37° C. with 5% CO2. Insoluble formazan crystals were solubilized by addition of 0.1 mL detergent solution (4 hr at room temp., dark). Resulting colored solutions were then quantified at an absorbance of 570 nm.

MDA-MB-231 = assay: MTT cell viability assay, MDA-MB-231; conditions: Homo sapiens
Description: as §1

MCF-7 = assay: MTT cell viability assay, MCF-7; conditions: Homo sapiens, read-out: IC50/μM MCF-7
Description: as §1

[1] = MTT, 72-hour incubation, read-out: IC50/μM MEF (C57BL/6)
[2] = 72 h, read-out: IC50/μM MEF (C57BL/6), MTT, 72-hour incubation
[3] = MDA-MB-231, 72 h, 72-hour incubation
[4] = MCF7, 72 h, MTT, 72-hour incubation

Row | IC50 (MDA-MB-231; MDA-MB-231, 72-hour incubation) [µM] | IC50 (MCF-7; MCF7, MTT, 72-hour incubation) [µM] | Structure (SMILES) | IC50 (MEF (C57BL/6); [1]) [µM] | IC50 (MEF (C57BL/6); [2]) [µM] | IC50 (MDA-MB-231; [3]) [µM] | IC50 (MCF-7; [4]) [µM] | IC50 (MCF-7; MCF7, 72 h) [µM]
1 | 0.64 ± 0.08 | 1.97 ± 0.11 | CCn1c(=O)/c(=C2\Sc3cc(F)ccc3N2C)s/c1=C\c1scc[n+]1Cc1ccccc1S(C)(=O)=O [JG-288] | > 10 |  |  |  | 
2 | 0.12 ± 0.02 | 0.27 ± 0.02 | CCn1c(=O)/c(=C2\Sc3cc(Br)ccc3N2C)s/c1=C\c1scc[n+]1Cc1ccccc1Cl [JG-289] | 0.96 ± 0.05 |  |  |  | 
3 | 0.21 ± 0.02 | 0.16 ± 0.01 | CCn1c(=O)/c(=C2\Sc3cc(Br)ccc3N2C)s/c1=C\c1scc[n+]1Cc1ccccc1C [JG-290] | 1.7 ± 0.1 |  |  |  | 
4 | 0.14 ± 0.01 | 0.14 ± 0.01 | CCn1c(=O)/c(=C2\Sc3cc(Br)ccc3N2C)s/c1=C\c1scc[n+]1Cc1ccccc1OC(F)(F)F [JG-291] | 2.3 ± 0.1 |  |  |  | 
5 | 0.18 ± 0.02 | 0.12 ± 0.01 | CCn1c(=O)/c(=C2\Sc3cc(Br)ccc3N2C)s/c1=C\c1scc[n+]1Cc1ccccc1C(F)(F)F [JG-292] | 2.7 ± 0.1 |  |  |  | 
6 | 0.14 ± 0.03 | 0.3 ± 0.03 | CCn1c(=O)/c(=C2\Sc3cc(Br)ccc3N2C)s/c1=C\c1scc[n+]1Cc1ccsc1C(=O)OC [JG-293] | 3.1 ± 0.3 |  |  |  | 
7 | 0.093 ± 0.005 | 0.084 ± 0.006 | CCc1ccc2c(c1)S/C(=c1/s/c(=C\c3scc[n+]3Cc3ccccc3Cl)n(CC)c1=O)N2C [JG-295] | 0.48 ± 0.01 |  |  |  | 
8 | 0.14 ± 0.01 | 0.1 ± 0.01 | CCc1ccc2c(c1)S/C(=c1/s/c(=C\c3scc[n+]3Cc3ccccc3C)n(CC)c1=O)N2C [JG-296] | 0.61 ± 0.02 |  |  |  | 
9 | 0.097 ± 0.006 | 0.08 ± 0.005 | CCc1ccc2c(c1)S/C(=c1/s/c(=C\c3scc[n+]3Cc3ccccc3OC(F)(F)F)n(CC)c1=O)N2C [JG-297] | 0.41 ± 0.01 |  |  |  | 
10 | 0.11 ± 0.01 | 0.052 ± 0.004 | CCc1ccc2c(c1)S/C(=c1/s/c(=C\c3scc[n+]3Cc3ccccc3C(F)(F)F)n(CC)c1=O)N2C [JG-298] | 0.43 ± 0.02 |  |  |  | 
11 | 0.071 ± 0.009 | 0.083 ± 0.007 | CCc1ccc2c(c1)S/C(=c1/s/c(=C\c3scc[n+]3Cc3ccsc3C(=O)OC)n(CC)c1=O)N2C [JG-299] | 0.92 ± 0.04 |  |  |  | 
12 |  |  | CCn1c(=O)/c(=C2\Sc3cc(OC)ccc3N2C)s/c1=C\c1scc[n+]1Cc1ccccc1Cl [JG-301] |  | 0.66 ± 0.01 | 0.033 ± 0.005 | 0.048 ± 0.003 | 
13 | 0.11 ± 0.01 | 0.12 ± 0.01 | CCn1c(=O)/c(=C2\Sc3cc(OC)ccc3N2C)s/c1=C\c1scc[n+]1Cc1ccccc1C [JG-302] | 1.8 ± 0.05 |  |  |  | 
14 |  |  | CCn1c(=O)/c(=C2\Sc3cc(OC)ccc3N2C)s/c1=C\c1scc[n+]1Cc1ccccc1OC(F)(F)F [JG-303] | 0.7 ± 0.01 |  | 0.053 ± 0.005 |  | 0.07 ± 0.003
15 | 0.1 ± 0.02 | 0.12 ± 0.01 | CCn1c(=O)/c(=C2\Sc3cc(OC)ccc3N2C)s/c1=C\c1scc[n+]1Cc1ccccc1C(F)(F)F [JG-304] | 1.4 ± 0.06 |  |  |  | 
16 | 0.16 ± 0.01 | 0.12 ± 0.01 | CCn1c(=O)/c(=C2\Sc3cc(OC)ccc3N2C)s/c1=C\c1scc[n+]1Cc1ccsc1C(=O)OC [JG-305] | 1 ± 0.1 |  |  |  | 
17 | 0.1 ± 0.01 | 0.16 ± 0.02 | CCn1c(=O)/c(=C2\Sc3cc(OC)ccc3N2C)s/c1=C\c1scc[n+]1Cc1ccc(C(F)(F)F)o1 [JG-306] | > 10 |  |  |  | 
18 | 0.13 ± 0.02 | 0.12 ± 0.01 | CCn1c(=O)/c(=C2\Sc3cc(Cl)ccc3N2C)s/c1=C\c1scc[n+]1Cc1ccccc1Br [JG-307] | 1.1 ± 0.1 |  |  |  | 
19 | 0.19 ± 0.02 | 0.16 ± 0.02 | CCn1c(=O)/c(=C2\Sc3cc(F)ccc3N2C)s/c1=C\c1scc[n+]1Cc1ccccc1Br [JG-308] | 0.6 ± 0.06 |  |  |  | 
20 |  |  | CCn1c(=O)/c(=C2\Sc3cc(SC)ccc3N2C)s/c1=C\c1scc[n+]1Cc1ccccc1Cl [JG-309] |  | 0.75 ± 0.05 | 0.13 ± 0.01 | 0.15 ± 0.01 | 
21 | 0.11 ± 0.01 | 0.23 ± 0.04 | CCn1c(=O)/c(=C2\Sc3cc(SC)ccc3N2C)s/c1=C\c1scc[n+]1Cc1ccccc1C [JG-310] | 2.2 ± 0.2 |  |  |  | 
22 | 0.16 ± 0.02 | 0.2 ± 0.01 | CCn1c(=O)/c(=C2\Sc3cc(SC)ccc3N2C)s/c1=C\c1scc[n+]1Cc1ccsc1C(=O)OC [JG-313] | 1.4 ± 0.1 |  |  |  | 
23 | 0.25 ± 0.04 | 0.57 ± 0.08 | CCn1c(=O)/c(=C2\Sc3cc(SC)ccc3N2C)s/c1=C\c1scc[n+]1Cc1ccc(C(F)(F)F)o1 [JG-314] | 4.8 ± 0.9 |  |  |  | 
24 | > 20 | > 20 | CCn1c(=O)/c(=C2\Sc3cc(F)ccc3N2C)s/c1=C\c1scc[n+]1Cc1ccccc1C(=O)O [JG-315] | > 10 |  |  |  | 
25 | > 20 | > 20 | CCn1c(=O)/c(=C2\Sc3cc(Cl)ccc3N2C)s/c1=C\c1scc[n+]1Cc1ccccc1C(=O)O [JG-316] | > 10 |  |  |  | 
